Test: gradient 5% acetonitrile 3 min, to 50% in 2 min, to 85% in 15 min, held 3 min, 100 µL/min
Conditions: column: Zorbax Extend-C18 2.1 x 50 mm; eluents: water / acetonitrile, 0.1% formic acid
Procedure, shortened: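 Standards, all pure, were combined into mixtures of ~100 molecules and run at 100 μL/min on a Zorbax Extend-C18 column (2.1 × 50 mm, 1.8 μm) with water and acetonitrile, each containing 0.1% formic acid. A coupled quadrupole time-of-flight mass spectrometer operated in positive and negative ionization mode. Retention time values come from computationally picked adduct peaks, each inspected manually.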

With `CCN1c2ccccc2C(=O)NC12CCN(C(=O)c1ccc(F)cc1)CC2` as the molecule, how does the RP-LC retention time read?
Its RP-LC retention time is 756 s.

Which RP-LC retention time does the source give for `O=C(C1CCN(c2ncnc3c2nc2n3CCCCC2)CC1)N1CCN(c2ncccn2)CC1` here?
The RP-LC retention time was 669 s.

With `Cc1ccc(S(=O)(=O)c2ccccc2[N+](=O)[O-])cc1` as the molecule, how does the RP-LC retention time read?
Its RP-LC retention time is 874 s.

For `CCNS(=O)(=O)c1cc(-c2c(CC)noc2NC(C)=O)ccc1OC`, which RP-LC retention time is on record?
The RP-LC retention time was 668 s.

Which RP-LC retention time does the source give for `COc1ccc(NC(=O)N2CCCn3nc(-c4cccc(Cl)c4)cc3C2)cc1F` here?
The RP-LC retention time was 945 s.

With `CC(C)N1C(=O)c2cccnc2Sc2cc(C(=O)NC3CC3)ccc21` as the molecule, how does the RP-LC retention time read?
The RP-LC retention time was 702 s.

With `O=C(O)[C@@H]1OCCN(C2CC2)[C@H]1c1ccccc1` as the molecule, how does the RP-LC retention time read?
The RP-LC retention time was 545 s.

For `COc1ccc(Cl)cc1NC(=O)C1CCCN1S(=O)(=O)c1cc2c(cc1C)NC(=O)C(C)O2` (centres undefined), which RP-LC retention time is on record?
The RP-LC retention time was 909 s.

For `COc1cc(NC(=O)C2CCN(C(=O)C3Sc4ccccc4NC3=O)CC2)cc(OC)c1` (centres undefined), which RP-LC retention time is on record?
The RP-LC retention time was 754 s.

For `CSCc1csc(NC(=O)c2ccc(F)c(F)c2)n1`, which RP-LC retention time is on record?
The RP-LC retention time was 857 s.

Which RP-LC retention time does the source give for `CO[C@H]1C(=O)N(C2CCN(S(=O)(=O)c3ccc(C#N)cc3)CC2)[C@H]1c1ccncc1` here?
The RP-LC retention time was 624 s.

Which RP-LC retention time does the source give for `COc1cccc(NS(=O)(=O)c2cc(-c3cc(C(F)(F)F)on3)sc2C)c1` here?
The RP-LC retention time was 1110 s.

For `O=C(Cn1c(=O)c(S(=O)(=O)c2ccccc2)cc2ccccc21)NC1CCCCC1`, which RP-LC retention time is on record?
Its RP-LC retention time is 894 s.

With `CCOc1ccc(-c2noc(N3CCC(C(=O)N4CCN(C)CC4)CC3)n2)cc1OC` as the molecule, how does the RP-LC retention time read?
Its RP-LC retention time is 626 s.

For `CCCC1=Nc2cc(C(=O)N3CCN(c4ccccn4)CC3)ccc2Sc2ccc(C)cc21`, which RP-LC retention time is on record?
The RP-LC retention time was 802 s.

For `Cc1ccc(C(=O)N2CCc3nc(-c4ccc(F)cc4)ncc3C2)cc1C`, which RP-LC retention time is on record?
The RP-LC retention time was 901 s.

With `O=C(NCc1ccccc1F)c1ccc(NC(=O)C2CC2)cc1N1CCOCC1` as the molecule, how does the RP-LC retention time read?
The RP-LC retention time was 995 s.

Which RP-LC retention time does the source give for `Cc1ccc(NC(=O)Cn2c(=O)n(-c3ccc(F)cc3)c3ncccc32)cc1` here?
Its RP-LC retention time is 880 s.

Which RP-LC retention time does the source give for `O=C(NCc1ccc2c(c1)CCCN2C(=O)C1CC1)c1ccc(Br)o1` here?
Its RP-LC retention time is 840 s.

Which RP-LC retention time does the source give for `C=CCn1c(C(=O)N2CCN(c3ccccn3)CC2)cc2cc(S(=O)(=O)N(C)C)ccc21` here?
The RP-LC retention time was 649 s.

With `Cc1cc(OCC(=O)Nc2cccc(F)c2)nc(N2CCN(c3ccccc3)CC2)n1` as the molecule, how does the RP-LC retention time read?
The RP-LC retention time was 871 s.

Which RP-LC retention time does the source give for `COCCC1CCN(C(=O)CCc2c(C)nn(C)c2C)CC1` here?
Its RP-LC retention time is 616 s.

For `O=C(c1ccoc1)N1[C@H]2CC[C@@H]1c1cnc(-c3ccc(F)cc3)nc1C2`, which RP-LC retention time is on record?
The RP-LC retention time was 882 s.

With `COCCCNC(=O)C1CCCN(c2nccc(C)n2)C1` (centres undefined) as the molecule, how does the RP-LC retention time read?
The RP-LC retention time was 592 s.

For `CCc1nc(-c2cc(S(=O)(=O)N3CCC(C(=O)N4CCN(CC)CC4)CC3)c(C)s2)no1`, which RP-LC retention time is on record?
Its RP-LC retention time is 673 s.

With `Cc1sc(-c2cc(C(F)(F)F)on2)cc1S(=O)(=O)N1CCCCCC1` as the molecule, how does the RP-LC retention time read?
Its RP-LC retention time is 1270 s.

With `CCN1CCN(c2nc3cc(C(=O)OC)ccc3c(=O)n2-c2cc(OC)cc(OC)c2)CC1` as the molecule, how does the RP-LC retention time read?
The RP-LC retention time was 661 s.

With `O=C(Nc1ccccc1)N1CCC(n2cnc3ccc(F)cc3c2=O)CC1` as the molecule, how does the RP-LC retention time read?
The RP-LC retention time was 742 s.

With `CC1(CNC(=O)c2ccc3c(c2)OCO3)CCOCC1` as the molecule, how does the RP-LC retention time read?
Its RP-LC retention time is 664 s.

For `CC1CCN(c2cc(-c3noc(C(=O)NCCN4CCOCC4)n3)ccn2)CC1`, which RP-LC retention time is on record?
Its RP-LC retention time is 572 s.

Which RP-LC retention time does the source give for `COc1ccc(-c2nc(N(CCCN3CCOCC3)Cc3ccco3)c3ccccc3n2)cc1` here?
The RP-LC retention time was 588 s.

Which RP-LC retention time does the source give for `CCn1c(=O)sc2cc(S(=O)(=O)N3CCC(C(=O)NCc4ccc(C)o4)CC3)ccc21` here?
The RP-LC retention time was 861 s.

With `CC(C)n1cnc2cc(CNC(=O)Cc3c[nH]c4ccccc34)ccc21` as the molecule, how does the RP-LC retention time read?
The RP-LC retention time was 604 s.

For `O=C(NCc1ccco1)c1cc2c(=O)n(Cc3ccccc3)ccc2s1`, which RP-LC retention time is on record?
Its RP-LC retention time is 822 s.

Which RP-LC retention time does the source give for `CCN(CC)CC(C)(C)C(=O)/C=C/c1ccc(C)cc1` here?
Its RP-LC retention time is 684 s.

For `OC[C@H]1O[C@@H](n2cnc3c(NC4CCCCC4)ncnc32)[C@H](O)[C@@H]1O`, which RP-LC retention time is on record?
Its RP-LC retention time is 656 s.

Which RP-LC retention time does the source give for `Cc1c(C)n(-c2ccccc2)c2ncn(CC(=O)NC3CCCC3)c(=O)c12` here?
The RP-LC retention time was 799 s.

For `COc1cccc(NC(=O)N2CCN(c3cc(C)nc(Nc4ccc(C)cc4)n3)CC2)c1`, which RP-LC retention time is on record?
The RP-LC retention time was 687 s.

For `CCCC(=O)N1CCCN(C2=NS(=O)(=O)C(c3ccc(F)cc3)=C2C)CC1`, which RP-LC retention time is on record?
The RP-LC retention time was 780 s.

With `O=C(Cc1cccc(F)c1)N1CCc2cc(-c3ccno3)ccc21` as the molecule, how does the RP-LC retention time read?
The RP-LC retention time was 948 s.

For `CCCNC(=O)C1CCCN(c2ncnc3c2nc2n3CCCCC2)C1` (centres undefined), which RP-LC retention time is on record?
The RP-LC retention time was 650 s.

For `CCOc1cc(-c2nc(C3CC(=O)N(c4ccc(OC)c(OC)c4)C3)no2)cc(OCC)c1OCC` (centres undefined), which RP-LC retention time is on record?
Its RP-LC retention time is 1060 s.

For `CCOC(=O)Cn1c(=O)c2cnc(-c3ccc(Cl)cc3)nc2n(C)c1=O`, which RP-LC retention time is on record?
The RP-LC retention time was 1130 s.

With `O=C(Nc1ccc2c(c1)CN(C(=O)c1cccs1)CC2)c1ccccc1C(F)(F)F` as the molecule, how does the RP-LC retention time read?
The RP-LC retention time was 821 s.

From the METLIN SMRT retention time set (Domingo-Almenara et al. 2019)
